The text below walks through data of patent EP4248959A1, “PREPARATION FOR REDUCTION OF PATHOLOGICAL IRON OVERLOAD” (Dr. Franz Köhler Chemie GmbH, priority 2022, dated 2023).

For one data set, the system named is CHO-K1 cells. Briefly: In vitro micronucleus assay (cytokinesis-block, OECD 487, GLP) with and without S9 metabolic activation. The format is cell-based. As to conditions: for concentration-related increase in frequency of MN: Chi-square test for trend; for micronucleus frequency / MN formation compared with the concurrent negative control: with and without metabolic activation, Chi-square test with Yates' correction. An excerpt: The in vitro Micronucleus Assay (MNA) is a mutagenic test system for the detection of chemicals that induce the formation of small membrane-bound DNA fragments (micronuclei (MN)) in the cytoplasm of interphase cells. The MNA, used for regulatory purposes measures formation of chromosomal changes following DNA damage induced by the compounds under test, and is used to predict the genotoxic potential of pharmaceuticals, industrial chemicals, food additives and cosmetic ingredients.
MN originate from chromosome fragments or whole chromosomes that are not included in the main daughter nuclei during nuclear division. They reflect chromosome damage and may thus provide a marker of genotoxicity and even early-stage carcinogenesis. The most commonly used method in mammalian cells is the cytokinesis-block micronucleus (CBMN) assay. In the CBMN assay, MN are scored after a single cell division using binucleated cultured cells (accumulated using cytochalasin B) to eliminate the confounding effect of altered cell division kinetics on the MN index.
The formation of MN is a consequence of chromosomal breakage and/or spindle-fiber dysfunction induced by clastogens and/or aneuploidogens.
DMSO controls were run concurrently for each experiment.
Micronucleus frequency was analyzed in at least 2000 binucleate cells per concentration and control.
In order to assess genotoxic potential. […] Statistical analysis of the MN frequency and binucleate cells with MN was performed using the Chi-square test with Yates' correction. To examine the dose-response relationship in frequencies of the micronuclei Chi-square test for trend was performed.

For another data set, the system named is rat. Briefly: Acute toxicology following intravenous administration of a single dose. In kind it is in vivo. How it is done: 1. Acute toxicology of 2,3-dimethoxy-N-methylbenzhydroxamic acid (XIII) following intra venous administration of a single dose.
In the preliminary phase, 1 male and 1 female rat were dosed at 200 mg/kg and observed for a period of 7 days. […] A further group of 1 male and 1 female animals was dosed at a dose level of 300 mg/kg. […] Recovery occurred approximately 4 hours after dosing.
In the main phase of the study, 1 group of 5 male and 5 female animals was dosed at 300 mg/kg and observed for a period of 14 days. […] Recovery occurred by Day 3.

[1] abbreviates: both, rat, in vivo, iv, 300 mg/kg.
Where [2] appears, read: rat, single i.v. dose of 300 mg/kg body weight.

Entries after “also recorded” stand apart in the source; their conditions may differ.

On to `O=P1(N(CCCl)CCCl)NCCCO1` (centres unmarked) [CP, cyclophosphamide, reference compound], for which, in the data set with CHO-K1 cells, the “concentration-related increase in frequency of MN” value is given as “increased” and the “micronucleus frequency / MN formation compared with the concurrent negative control” value is “significantly induced”.
On to `COc1ccc(C(=O)N(C)O)cc1OC` [LK 614, 3,4-dimethoxy-N-methylbenzhydroxamic acid], for which, in the data set on CHO-K1 cells, the “dose-dependent genetic toxicity (summary)” value was “did not produce dose-dependent genetic toxicity”; the “concentration-related increase in frequency of MN” value is “not observed; also recorded: no dose-related increase”; the “micronucleus frequency / MN formation compared with the concurrent negative control” value was “did not exhibit statistically significant increase; also recorded: None of tested concentrations of test item, LK 614, exhibits a statistically significant increase”. In the data set on CHO-K1 cells (+S9 short, -S9 short and -S9 extended treatment), the “genotoxicity (MNA test result)” value is listed as “no genotoxicity”.
For `COc1cccc(C(=O)N(C)O)c1OC` [XIII, 2,3-dimethoxy-N-methylbenzhydroxamic acid], in the data set with rat (setting [1]), the recovery is at most 3 days and the recovery after dosing result was “approximately 4 hours”. Further, the mortality entry in the data set on rat (main phase, 5 male and 5 female rats, 300 mg/kg i.v. single dose, observed 14 days) is listed as “No mortality occurred”. In addition, the mortality entry in the data set on rat (preliminary phase, 1 male and 1 female rat, 200 mg/kg i.v. single dose, observed 7 days) is “No mortality”. For the same compound, the necropsy examination result in the data set on rat (rat, in vivo) is given as “No abnormalities”. Also, the clinical signs entry with rat (rat, in vivo, iv, 200 mg/kg) is “no clinical signs”. In addition, in the data set with rat (setting [2]), the “tolerability of dose level” value is given as “reasonably tolerated” and the “toxic effect (overall conclusion)” value was “slight toxic effect”.
